According to patent US20050089473A1, “Potassium channel mediated delivery of agents through the blood-brain barrier” (Cedars-Sinai Medical Center, priority 2003, published 2005):
Where “and” joins values, the source holds several entries; their conditions need not be identical. Equal entries are not always repeated. Where two headings read alike, the source gives them in different places. Ends that are not written are not given here.

Columns and labels:
[1] = cited from earlier work
[2] = target: T1, soluble guanylyl cyclase (Bos taurus, UniProt P16068+P19687); settings: cited from earlier work
T1 sequence (P16068 1-619): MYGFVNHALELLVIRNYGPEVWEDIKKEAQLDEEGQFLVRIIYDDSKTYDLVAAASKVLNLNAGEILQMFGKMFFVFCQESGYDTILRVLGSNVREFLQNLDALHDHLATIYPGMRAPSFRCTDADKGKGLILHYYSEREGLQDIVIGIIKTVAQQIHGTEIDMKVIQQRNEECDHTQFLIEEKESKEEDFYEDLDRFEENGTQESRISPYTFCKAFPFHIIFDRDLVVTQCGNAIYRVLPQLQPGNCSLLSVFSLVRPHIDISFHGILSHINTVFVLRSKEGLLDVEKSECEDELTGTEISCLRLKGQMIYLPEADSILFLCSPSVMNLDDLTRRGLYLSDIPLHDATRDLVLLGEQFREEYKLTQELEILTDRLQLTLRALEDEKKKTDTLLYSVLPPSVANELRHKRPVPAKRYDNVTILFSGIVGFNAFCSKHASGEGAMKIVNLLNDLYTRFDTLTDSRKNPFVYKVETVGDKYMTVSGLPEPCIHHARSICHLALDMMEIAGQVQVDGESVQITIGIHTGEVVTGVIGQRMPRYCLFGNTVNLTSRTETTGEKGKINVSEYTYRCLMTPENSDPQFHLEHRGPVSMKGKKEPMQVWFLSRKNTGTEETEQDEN
T1 sequence (P19687 1-691): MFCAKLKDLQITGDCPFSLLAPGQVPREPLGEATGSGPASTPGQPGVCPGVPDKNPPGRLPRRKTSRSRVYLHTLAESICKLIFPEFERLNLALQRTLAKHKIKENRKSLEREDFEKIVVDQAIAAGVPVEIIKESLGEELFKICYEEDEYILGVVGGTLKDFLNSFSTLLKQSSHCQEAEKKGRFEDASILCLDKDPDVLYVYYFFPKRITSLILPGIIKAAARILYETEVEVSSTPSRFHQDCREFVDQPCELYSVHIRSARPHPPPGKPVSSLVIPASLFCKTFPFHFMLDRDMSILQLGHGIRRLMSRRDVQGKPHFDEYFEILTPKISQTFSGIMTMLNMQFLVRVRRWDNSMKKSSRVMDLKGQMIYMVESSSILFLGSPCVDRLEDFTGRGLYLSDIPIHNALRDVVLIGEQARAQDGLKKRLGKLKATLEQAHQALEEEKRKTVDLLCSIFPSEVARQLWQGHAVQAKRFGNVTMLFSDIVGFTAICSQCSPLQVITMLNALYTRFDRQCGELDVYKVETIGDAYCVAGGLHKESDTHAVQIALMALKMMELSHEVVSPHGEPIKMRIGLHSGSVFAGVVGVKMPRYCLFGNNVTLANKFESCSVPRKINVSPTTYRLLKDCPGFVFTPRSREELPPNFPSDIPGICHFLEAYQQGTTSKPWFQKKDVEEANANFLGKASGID

[3] = cited from earlier work; remark: listed apart in the source
[4] = system: intracranial RG2 tumors; assay: Survival study, rats with intracranial RG2 tumors; assay type: in vivo, rat
Protocol: Wistar rats with implanted intracranial tumors were used to study the effect of MS on increased carboplatin delivery and survival. RG2 cells (1×10^5) were implanted intracranially to form a tumor (2 mm in size) in rats within a week. After a week, rats were given saline, carboplatin (5 mg/kg) or carboplatin after 15 min of MS (30 μg/kg/min for 15 min) infusion through an exteriorized catheter once a day for three consecutive days. The rats were carefully monitored for mortality and clinical signs due to brain tumor growth for 90 days or until death, whichever came first. Brains of dead, moribund or those rats that survived beyond 90 days were removed, frozen and cryosectioned for histological evaluation, in order to compare tumor volumes between treated and untreated groups. Kaplan-Meier analysis was performed to determine the statistical significance of the results.

[5] = system: intracerebral RG2 tumors; assay: In vivo BTB permeability (Ki by quantitative autoradiography) in RG2 tumor-bearing rats; parameters: species or system rat; settings: data not shown
[6] = system: KATP channels; assay: Membrane potential assay of KATP channel activity; assay type: cell-based, human; settings: RBEC, HBMVEC, RG2 and GBM cells
Protocol: Functional activities of putative KATP channels in HBMVEC and GBM cells were measured by detecting changes in voltage across the cell membrane as described earlier (Ningarsj, N. S., Rao, M., Hashizume, K., Asotra, K., and Black, K. L. Regulation of blood-brain tumor barrier permeability by calcium-activated potassium channels J. Pharmacol. Exp. Ther., 301:838-851, 2002). A membrane potential assay kit (Molecular Devices, Sunnyvale, Calif.) provided a fast, simple and consistent mix-and-read procedure. In brief, HBMVEC and GBM cells obtained from cell passages 2-5 was suspended in 5 ml of growth medium. In two separate experiments, the cell density was adjusted to 1×10^3 cells/well and coated in sterile, clear bottom, blank 96-well plates (Corning, Inc., Acton, Mass.), pre-coated with poly L-Lysine, and allowed to achieve a monolayer within 24 h. The monolayer cells were incubated with the membrane potential assay kit reagents for 30 min and read directly by FLEXstation. The anionic pchemiometric dye that traverses between cells and the extracellular solution in a membrane potential-dependent manner serves as an indicator of vasomodulator-induced voltage changes across the cell membrane. […] Additionally, the effects of the optimum dose (10 μM) of MS and glibenclamide (100 nM) on KATP channels activity in HBMVEC and GBM cells were determined.

[7] = system: intracranial human glial tumors; assay: Survival study, nude mice with intracranial human glial tumors; assay type: in vivo, mouse; settings: i.v., three consecutive doses for three days
Protocol: GBM-xenograft rat and mouse models were developed by intracranially implanting primary GBM cells isolated from patient brain tumor tissue. […] To investigate whether MS administration by intracarotid (i.c.) and intravenous (i.v.) routes, increases BTB permeability to different tracers, and enhances delivery to brain tumor, permeability studies were performed.
Nude mice were intracranially implanted with cells. The tumor was allowed to grow for 7 days before treatment was initiated.

CC(=O)NC(C(=O)O)C(C)(C)SN=O (racemic) [SNAP, S-nitroso-N-acetyl-D,L-penicillamine]
Half-life (t1/2) of NO donor [1]: 1980 to 2460 min

[C-]#[O+] [CO, Carbon monoxide]
Increase in soluble guanylyl cyclase activity ([2]; in the presence of YC-1): > 100 fold

CCN(CC)N(O)N=O.CCNCC [DEA/NO, N-ethylethanamine: 1,1-diethyl-2-hydroxy-2-nitrosohydrazine (1:1)]
Half-life (t1/2) of NO donor [1]: 2 to 4 min

NCCN(CCN)N(O)N=O [DETA/NO, 2,2′-hydroxynitrosohydrazino]bis-ethanamine]
Half-life (t1/2) of NO donor [1]: about 20 hours

[N]=O [NO, Nitric oxide]
Increase of vMax of sGC [2]: 100-200 fold

O=c1[nH]c2cc(C(F)(F)F)ccc2n1-c1cc(C(F)(F)F)ccc1O [NS-1619, 1,3-dihydro-1-[2-hydroxy-5-(trifluoromethyl)phenyl]-5-(trifluoromethyl)-2H-benzimidazol-2-one]
Effect on CBF in tumor and normal brain ([3]; i.c. infusion of low doses): did not alter CBF

CCCN(CCCN)N(O)N=O [PAPA/NO, 3-(2-hydroxy-2-nitroso-1-propylhydrazino)-1-propanamine]
Half-life (t1/2) of NO donor [1]: about 15 minutes

NCCCNCCCCN(CCCN)N(O)N=O [SPER/NO, N-(4-[1-(3-aminopropyl)-2-hydroxy-2-nitroso-hydrazino]-butyl)-1,3-propanediamine]
Half-life (t1/2) of NO donor [1]: 34 to 40 min

N.N.O=C([O-])C1(C(=O)[O-])CCC1.[Pt+2] [carboplatin]
Mean survival ([4]; RG2 tumor rats, i.c. once a day for three days, carboplatin 5 mg/kg, MS 30 μg/kg/min for 15 min): 55.46 ± 5.71 days
Mean tumor size ([4]; coronal brain sections): 5.30±1.9 mm^2 and 5.30±1.2 mm^2

COc1ccc(Cl)cc1C(=O)NCCc1ccc(S(=O)(=O)NC(=O)NC2CCCCC2)cc1 [glibenclamide]
BBB or BTB permeability, glibenclamide infused alone or prior to MS [5]: did not affect BBB or BTB permeability
Membrane potential dye fluorescence intensity [6]: reversed

Cn1nnc2c(C(N)=O)ncn2c1=O [temodor]
Mean survival [7]: 25.5 ± 6.3 days

RPPGFSPFR [BK]
Effect on CBF in tumor and normal brain ([3]; rat, in vivo): did not alter CBF
